Assay results from patent US11351178B2, “Selective HDAC6 inhibitors” (ITALFARMACO S.P.A., priority 2017, dated 2022).
Like-named read-outs stand apart in the source and are kept apart here.

Columns and labels:
[1] = system: regulatory T cell (Treg, CD4+CD25+) suppression activity; test: T CD4 lymphocyte proliferation mediated by mouse regulatory T cells suppression assay; type: cell-based
Method: To evaluate the ability of the molecules under this patent to increase regulatory T cell (Treg, CD4^+CD25^+) suppression activity a T-cell (responder T cells, Teff) proliferation suppression assay was used. Treg cells at different concentrations were cultured with Teff cells (CD4^+CD25^−) in the presence of proliferative stimuli. T cells need of two stimuli to proliferate: the first given by the recognition of antigen associated with MHC by T cell receptor (TCR) and the second one derived from co-stimulatory molecules such as CD28. In the absence of a specific antigen, TCR activation can take place with an antibody recognizing one of the composing subunits, CD3ε. In this assay, anti-CD3ε monoclonal antibody and CD4 T cell depleted splenocytes were used as activator stimuli. Therefore, the ability to reduce Teff cells proliferation by Tregs in the presence or absence of HDAC6 inhibitors was assessed.
Treg and Teff cells were separated using the Treg isolation kit based on magnetic beads separation technique (Miltenyi Biotec) through an initial negative selection and a final positive selection process.
Single cell suspension was obtained from spleen of C57BL/6 mice using a 70 μm strainer.
Cell suspension was treated with ACK buffer to lyse red blood cells and then centrifuged for 5 minutes at 300×g. After centrifugation, the cells were resuspended in PBS (Phosphate Buffered Saline, Gibco) and counted. Subsequently, splenocytes were resuspended in a buffer consisting of PBS, 0.5% BSA and 2 mM EDTA.
To proceed with the first step of Treg separation, CD4 negative cells were indirectly magnetically labeled with a cocktail of biotin-conjugated antibodies against CD8a, CD11b, CD45R, CD49b, Ter-119 and Anti-Biotin MicroBeads CD4+ cells were thus obtained by negative selection as flow-through of a magnetic MACS column.
Cells bound to microbeads were eluted and conserved for their use as antigen presenting cells (APC) in the proliferation assay.
In the second step of Treg purification, pre-enriched CD4+ cells were labelled with an R-phycoerythrin (PE)-conjugated anti-CD25 antibody that preferentially binds to Treg cells and magnetic beads coupled with an anti PE antibody. The cell suspension was then loaded on a column. The Teff cells pass through the column without binding (negative selection), while beads-bound Treg cells adhere through the magnetic beads (positive selection). Treg cells were then eluted from the column by buffer flow using a plunger. Treg and Teff cell purification is summarized in FIG. 6. • CD4− cells from first positive selection as APC • Treg CD4+ CD25+ as suppressor cells • Teff CD4+ CD25− as responder/proliferating cells
CD4^− cells were treated with mitomycin C (50 μg/ml, Sigma) for 30 min at 37° C. to prevent their proliferation They were then resuspended at a concentration of 4.0×10^5/50 μl in complete medium (RPMI, FBS10%, penicillin/streptomycin 1×, 50 μM beta mercaptoethanol). Teffs were labeled with carboxy fluorescein succinimidyl ester (CFSE) at a concentration of 2 μM in PBS at 37° C., and after 10 minutes incubation, the reaction was blocked with a 10% FBS PBS solution. CFSE labelling allows covalent modification of Teff cell to analyse their proliferation by fluorescence dilution. The labelled Teffs were then centrifuged and resuspended at the final concentration of 5.0×10^4/50 μl in complete medium. Finally, the Tregs obtained by purification were diluted to the final concentration of 5.0×10^4/50 μl in complete medium.
Then a co-culture of Teff (5.0×10^4), T CD4^− (4.0×10^5) was prepared and Treg cells in different ratios (1:1, 1:2, 1:4, 1:8 ratio Teff to Treg cells) were added thereto. The test compounds at different concentrations or DMSO vehicle were added to the cell suspension. Finally, an anti-CD3ε monoclonal antibody (Miltenyi Biotec) was added at a concentration of 1 μg/ml. Cells were plated in flat bottom 96-well plates and each condition was set up in a technical duplicate. […]

HDAC1 = biological target: T1, HDAC1 (Homo sapiens, UniProt Q13547); test: Enzymatic test HDAC1; type: biochemical; conditions: Table 3
T1 construct: purchased BPS 50051

human PBMCs = test: Mixed Lymphocytes Reaction (MLR) with human PBMCs (IFN-γ, TNF-α, IL-6); type: cell-based; conditions: PBMC, 144 h, two-way MLR, 6 days, 1 μM, negative = induction
Method: In order to study HDAC6 inhibitors ability to inhibit the activation of allogenic T CD4+ cells, a Mixed Lymphocytes Reaction (MLR or mixed lymphocyte culture, CLM) assay was performed. This is a reaction involving blast transformation of in vitro cultured lymphocytes in the presence of allogeneic lymphocytes. There is the so-called “two-way” reaction wherein the two lymphocyte populations stimulate each other to proliferate, and the so-called “one way” reaction, wherein the proliferation of one of the two populations is inhibited by mitomycin C or irradiation, these cells provide proliferation stimulus (stimulator) to the so-called “responder” cells.
Human peripheral blood mononuclear cells (PBMCs) used in MLR were obtained by Ficoll gradient separation from Buffy Coat of healthy donors.
We used a two-way MLR. The cells from the two donors were plated at 1:1 ratio (allogenic stimulation) to the final concentration of 2×10^5 per well in U-bottom 96 well plates in RPMI 1640 medium with 10% FBS and antibiotics. As a control we individually plated the cells from each donor (singenic stimulus). The experiment for each inhibitor was set in deduplicate for allogeneic stimuli and in quintuplicate for singenic stimuli. The cells were cultured for 6 days in an incubator at 37° C.
After 6 days the effect of the test compounds was evaluated by measuring the production of pro-inflammatory cytokines recognized to be characteristics of this assay.
For this purpose, the culture supernatant was harvested and used for IFN-γ, TNF-α and IL-6 inflammatory cytokine assay.
The JAK inhibitor ruxolitinib was used as the active reference compound in the test.
Values in the table indicate the inhibition percentages. Negative values indicate an induction.

[2] = read-out: MLR IFN-γ inhibition percentage
[3] = read-out: MLR IL-6 inhibition percentage
[4] = read-out: MLR TNF-α inhibition percentage

T1 sequence (Q13547 whole entry): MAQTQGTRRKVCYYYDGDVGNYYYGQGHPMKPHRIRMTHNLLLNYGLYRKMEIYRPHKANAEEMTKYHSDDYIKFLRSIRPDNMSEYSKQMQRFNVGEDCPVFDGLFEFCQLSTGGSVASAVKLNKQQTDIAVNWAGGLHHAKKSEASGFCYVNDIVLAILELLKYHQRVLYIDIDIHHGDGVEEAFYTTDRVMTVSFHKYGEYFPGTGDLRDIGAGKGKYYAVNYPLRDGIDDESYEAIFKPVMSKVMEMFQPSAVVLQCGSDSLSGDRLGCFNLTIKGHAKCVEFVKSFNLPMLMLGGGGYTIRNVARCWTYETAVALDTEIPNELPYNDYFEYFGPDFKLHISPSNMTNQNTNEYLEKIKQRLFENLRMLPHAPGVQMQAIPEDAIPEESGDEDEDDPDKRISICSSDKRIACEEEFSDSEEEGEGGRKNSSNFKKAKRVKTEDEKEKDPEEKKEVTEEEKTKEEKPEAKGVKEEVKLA

SMILES | IC50 (HDAC1) [nM] | RS (relative T-reg suppression, AUC drug/AUC control) ([1]; concentration 1 μM) | inhibition at 1 µM (human PBMCs; [2]) [%] | inhibition at 1 µM (human PBMCs; [3]) [%] | inhibition at 1 µM (human PBMCs; [4]) [%] | RS (relative T-reg suppression, AUC drug/AUC control) ([1]; concentration 0.5 μM)
O=C(NO)c1cc(F)c(Cn2nnc(-c3cccs3)n2)c(F)c1 [comp. 65, 3,5-difluoro-4-[[5-(2-thienyl)tetrazol-2-yl]methyl]benzenecarbohydroxamic acid] | 2410 | 4.4 | 45 | 5.4 | 67.3 | 
CCN(CC)S(=O)(=O)c1cccc(-c2nnc(Sc3ccc(C(=O)NO)cc3)n2C)c1 [comp. 66, 4-[[5-[3-(diethylsulfamoyl)phenyl]-4-methyl-1,2,4-triazol-3-yl]sulfanyl]benzenecarbohydroxamic acid] | 747 | 2.6 | 53 | 12.9 | 42.8 | 
O=C(NO)c1cc(F)c(Cn2nnc(-c3scc4c3OCCO4)n2)c(F)c1 [comp. 79, 4-[[5-(2,3-dihydrothieno[3,4-b][1,4]dioxin-5-yl)tetrazol-2-yl]methyl]-3,5-difluoro-benzenecarbohydroxamic acid] | 2320 | 1.7 | 27.5 | 38.6 | 50.9 | 

Stronger by IC50 (HDAC1), values ahead:

IC50 (HDAC1) [nM] | SMILES | RS (relative T-reg suppression, AUC drug/AUC control) ([1]; concentration 1 μM) | inhibition at 1 µM (human PBMCs; [2]) [%] | inhibition at 1 µM (human PBMCs; [3]) [%] | inhibition at 1 µM (human PBMCs; [4]) [%] | RS (relative T-reg suppression, AUC drug/AUC control) ([1]; concentration 0.5 μM)
581 | CN(C)c1cccc(-c2nnc(Sc3ccc(C(=O)NO)cc3)n2C)c1 [comp. 77, 4-[[5-[3-(dimethylamino)phenyl]-4-methyl-1,2,4-triazol-3-yl]sulfanyl]benzenecarbohydroxamic acid] | 2.4 | 32.1 | 34.3 | 64.2 | 
469 | Cc1cc(-c2nnc(Sc3ccc(C(=O)NO)cc3)n2C)nn1C [comp. 85, 4-[[5-(1,5-dimethylpyrazol-3-yl)-4-methyl-1,2,4-triazol-3-yl]sulfanyl]benzenecarbohydroxamic acid] | 3.8 | 51.8 | 66.9 | 73.8 | 3.0
